According to US20240302376A1, “METHOD FOR IDENTIFYING SUBGROUPS OF CIRCULATING TUMOR CELLS (CTCS) IN THE CTC POPULATION OF A BIOLOGICAL SAMPLE” (priority 2012, published 2024):

Experiments:
[1] = tested on: Pt-(GpG) adducts in DNA of CTC and CD45-positive cells; test: Pt-(GpG) DNA adducts in CD45/CD15-depleted mononuclear cell fraction exposed to cisplatin ex vivo; format: cell-based, human; conditions: after exposure to cisplatin, NSCLC patient blood
Text: Pt-(GpG) intrastrand crosslinks are the major DNA adducts induced by platinum-based anticancer drugs. […] Pt-(GpG) DNA adducts in CTCs treated with cisplatin in medium upfront to systemic therapy from patients with advanced non-small-cell lung cancer (NSCLC) was studied.
Blood was drawn before systemic treatment and the CD45/CD15-depleted fraction of mononuclear cells was exposed to cisplatin, verified for the presence of CTC by pan-cytokeratin (pCK) staining and immunoanalysed for the level of Pt-(GpG) in DNA. Pt-(GpG) adducts can be detected in CTC from NSCLC patients and assessing their kinetics constitutes a clinically feasible biomarker for response prediction and dose individualisation of platinum-based chemotherapy.
Epithelial CTCs were detected that stained positive for DAPI and pCK and negative for CD45. The ratio of pCK− positive to CD45-positive cells in the depleted fractions was in the range of […], resulting in up to three CTC per cell spot on the slides. […]
The measurement of Pt-(GpG) adducts in the nuclear DNA of short term-exposed CTC depict a characteristic time course of formation and removal. […] The degree of association was calculated between these three values of ex vivo adduct persistence in CTC from 11 patients with their therapeutic response using the Spearman's rho rank correlation coefficient. […]

[2] = tested on: Pt-(GpG) in the DNA of CTC; test: Pt-(GpG) adduct levels in CTC after cisplatin infusion versus ex vivo exposure; parameters: species or system human; conditions: clinical dose 50 mgm_2 (1.4 mg kg_1 body weight); blood at baseline and 2, 4 and 24 h after infusion; same patient
Description: To test whether adduct kinetics measured in tumour cells after ex vivo exposure to cisplatin mirror the formation and repair rates for Pt-(GpG) in the DNA of those cells in vivo during systemic treatment, blood samples from the same patient were analysed under both the conditions.

`N.N.[Cl][Pt][Cl]` [cisplatin] was tested. Which “levels of DNA platination in CD45-positive cells as compared with CTC (fold lower)” value [1] did it give?
Its value is ~10 fold.

And the “CTC adduct levels after clinical dose versus ex vivo exposure” value [2]?
Its value is “comparable to a short time ex vivo exposure with 20 mgml_1 for 2 h”.
